Reference: patent US20240366624A1, “METHODS AND COMPOSITIONS FOR TREATING THROMBOTIC DISEASE” (Washington University, priority 2023, published 2024)
Entries after “also recorded” stand apart in the source; their conditions may differ. Where a SMILES comes first, the peptide text is derived from it. Bridges are numbered along the chain shown (N, C = ends). [ ]: non-standard residue; d: D form. hArg = N=C(N)NCCCC[C@H](N)C(=O)O; Mpa = O=C(O)CCS

How the values were obtained:
WT (C57BL/6) mice = test: Intravital microscopy, laser-induced cremaster arteriolar injury, WT mice; assay type: in vivo, mouse; details: iv 5 μg/g BW
Procedure: Intravital microscopy was performed in a mouse model of laser-induced cremaster arteriolar injury as previously described. WT (C57BL/6), littermate WT control, and CKO and KO male mice (8-10 weeks old) were anesthetized with intraperitoneal injection of ketamine and xylazine. The cremaster muscle was exteriorized and superfused with 37° C. bicarbonate-buffered saline throughout the experiment. Arteriolar wall injury was induced by laser ablation (Photonics Instruments) as previously described. Multiple thrombi were generated in at least 3 to 4 different arterioles of 1 mouse, with new thrombi formed upstream of earlier thrombi to minimize any contribution from thrombi generated earlier in the mouse. Platelets and fibrin were visualized by infusion of DyLight 649-conjugated anti-CD42c (0.2 μg/g body weight [BW]) and Alexa Fluor 488-conjugated anti-fibrin (0.2 μg/g BW) antibodies, respectively. To detect extracellular Ero1α, Alexa Fluor 488-conjugated rabbit IgG or nonblocking anti-ERO1α antibodies (0.3 μg/g BW) were injected into WT (C57BL/6), WT control, Ero1α KO, and Ero1α CKO mice. In some experiments, wtERO1α or activity-null ERO1α-Cys94Ser (mutant ERO1α [mERO1α]; 4 μg/g BW) was infused into Ero1α KO mice before imaging. To test the effect of ERO1α inhibitors or blocking anti-ERO1α antibodies, WT (C57BL/6) mice were treated with intravenous injection of vehicle control, eptifibatide (5 μg/g BW), B12-5 (5 μg/g BW), isotype control IgGs, anti-ERO1α (15E9, 1-3 μg/g BW), or anti-PDI (BD34, 3 μg/g BW) 3 minutes before treatment with the anti-CD42c and anti-fibrin antibodies. The same dose of eptifibatide was injected every 20 minutes to maintain the inhibitory effect. […] Fluorescence and bright-field images were captured in 6 to 10 different cremaster arterioles with a diameter of 30 to 45 μm in each mouse and recorded using either an Olympus BX61W microscope with a 60×1.0 salt water immersion objective or a Zeiss Axio Examiner Z1 microscope system with a Yokogawa confocal spinning disk (CSU-W1) equipped with 4 stack laser system (405-, 488-, 561-, and 637-nm wavelengths). Images were collected with a high-speed, high-resolution camera (2304×2304 pixel format; ORCA-Fusion BT sCMOS, Hamamatsu). Time 0 was set to when image capture began on each vessel. The data were analyzed using Slidebook (version 6.0; Intelligent Imaging Innovations). Due to the significant variation between vessels in the same mouse, the result from each vessel was counted as an individual value. Representative images were chosen that most closely resemble the mean values in the quantifications.

WT mice = test: FeCl3-induced carotid arterial thrombosis; assay type: in vivo, mouse; details: 5 μg/g BW, vs vehicle control
Procedure: FIG. […]) is an exemplary embodiment of B12-5 having an antithrombotic effect without prolonging tail bleeding times in mice in accordance with the present disclosure. FIG. […]): Ex vivo effects of B12-5. Wild type (WT; […] One hour later, blood was drawn, followed by isolating platelets. P-selectin exposure (FIG. 19A) and αIIbβ3 integrin activation (FIG. 19B) were assessed in flow cytometry. FIG. 19C: Platelet aggregation was measured after treatment with 0.025 U/mL thrombin. The data represent the mean±SD (n=4). FIG. 19D: The plasma levels of B12-5 were analyzed by liquid chromatography-tandem mass spectrometry (LC-MS/MS) after intravenous injection of the compound (5 μg/g BW) into WT mice and quantified by comparison with a standard curve of B12-5 (mean±SD, n=3). FIG. 19E and FIG. 19F: After laser-induced cremaster arteriolar injury, intravital microscopy was conducted with WT mice pretreated with intravenous injection of saline, eptifibatide (5 μg/g BW), vehicle, or B12-5 (5 μg/g BW). The median integrated fluorescence intensities of anti-CD42c (F platelet) and anti-fibrin (F fibrin) antibodies (n=37-42 arterioles in 6 mice per group). Quantification of the antibody signal at a different time point after laser injury. FIG. 19G: Comparison of B12-5 (5 μg/g BW) with eptifibatide (5 μg/g BW) and their respective controls in inhibiting FeCl3-induced carotid artery thrombosis in WT mice. FIG. 19H and FIG. 19I: WT mice were treated with intravenous injection of vehicle control, eptifibatide (5 μg/g BW), or B12-5 (5 μg/g BW). Thirty minutes later, tail bleeding times and Hb contents were measured after amputation of the tail tip. […] Twenty-three hours later, neurological deficits were assessed by the Bederson score and grip test, and infarct volume was measured as described in Methods. […] Twenty-three hours later, the neurological deficit and infarct volume were measured as described above. […] P values determined by unpaired Student t test (FIG. […]), FIG. 19K, and FIG. 19O) or Mann-Whitney U test (FIG. 19(E-1), FIG. 19L, FIG. 19M, FIG. 19P, and FIG. 19Q). […]

## N=C(N)NCCCC[C@@H]1NC(=O)CCSSC[C@@H](C(N)=O)NC(=O)[C@@H]2CCCN2C(=O)[C@H](Cc2c[nH]c3ccccc23)NC(=O)[C@H](CC(=O)O)NC(=O)CNC1=O [eptifibatide, reference compound] ([Mpa][hArg]GDWPC-NH2; disulfide 1-7)
WT (C57BL/6) mice
  fibrin generation: without reducing; also recorded: without affecting
  platelet thrombus formation: inhibit
WT mice
  time to occlusion: significantly prolonged
